Each block holds one molecule with its values, some of them ahead of it.
Assays:
[1] = Movement across bilayer into vesicle interior containing cyclodextrin-esterified DPH (permeability coefficient); assay type: physicochemical
Method: Calculation of permeability coefficient (P). The rate constant (kn) for and maximum extent of (Δm) fluorescence change are determined using direct curve fitting procedures (nonlinear regression) assuming that test substance movement is a simple first order process. Deviation from first-order kinetics may be encountered when test compound movement into, out of, or across the membrane is carrier- or channel-mediated or the drug concentration approaches saturation. […] In general an increasing signal takes the form: Et=Eb+En(1−e^−k^n^t)+En+1(1−e^−k^n+1^t)+. . . and a decreasing signal takes the form: Et=Eb+Ene^−k^n^t+En+1e^−k^n+1^t+. . . , where Et is the fluorescence of the system at time t, En is the fluorescence of the system either at time zero (for a decreasing signal) or infinity (for an increasing signal), Eb is the system fluorescence insensitive to addition or removal of test compound, t is time, and kn is the rate constant describing the rate of fluorescence decrease or increase. If more than one first order process is detected, the second or third processes are characterized by En+1, and kn+1 and by En+2 and kn+2, respectively.
The half-life for test compound movement across the bilayer is computed from the rate constant as t1/2=0.693/kn.
The molar flux (v) of a test compound across the membrane is computed as […]

[2] = Stein 1985; cited from earlier work
[3] = pKa and ionization of test compounds; assay type: physicochemical

- diffusion coefficient Dm ([1]; computed from P and K assuming λ=40×10^−8 cm): 3.9×10^−7 cm^−2·s^−1
Compound: CCO [ethanol]
- rate constant kn for uptake into vesicle interior ([1]; 10 μg lipid vesicles in 2 ml buffer, 10 μl ethanol): 62.9 per second
- diffusion coefficient Dm, reported value [2]: 1.5×10^−7 cm^−2s^−1

Compound: CCCCCC(=O)O [hexanoic acid]
- percentage ionized ([3]; pH 4.0): ~13%
- percentage ionized ([3]; pH 7.0): > 99%

- ionization ([3]; pH 4.0 and pH 7.0): not substantially ionized at either pH
Compound: CCCCCCO [hexanol]

— patent US7060292B2, “Lipid structures and uses thereof” (GESynthesis, Inc., priority 2001, dated 2006)
